{"source": "paper PMC4191062", "about": "“Development of αGlcN(1↔1)αMan-Based Lipid A Mimetics as a Novel Class of Potent Toll-like Receptor 4 Agonists” (Journal of Medicinal Chemistry, 2014)", "key": {"[1]": {"tested_on": "human dendritic cells", "assay": "Maturation marker expression in human dendritic cells (flow cytometry)", "type": "cell-based", "conditions": "hDCs, 24 h; LPS 10 ng/ml", "from_the_text": "To test the impact of selected α,α-GM-LAMs 1 and 3 on maturation of human dendritic cells (hDCs), immature monocyte-derived hDCs were stimulated with 1 and 3 in a wide concentration range or with E. coli LPS as positive control. DCs are able to persistently sense pathogen-associated molecular patterns and present antigens to T lymphocytes, thereby initiating an adaptive immune response.[7]\nNone of the α,α-GM-LAMs exerted cytotoxic effects on DCs, as determined by propidium iodide staining (data not shown). […]\nstimulatory molecules CD86 as well as the antigen presenting structures MHC class I and MHC class II, which are necessary for the induction of an adaptive immune response (SI-Figure 5). […]\nup-regulation of the inhibitory B7-H1 (CD272) and Sialoadhesin (CD169), which is known to be indirectly up-regulated in DCs due to release of type-I interferons. […]\nstimulator not only of the NF-κB- but also of the IRF-pathway. Stimulation of DCs with the monophosphoryl α,α- […]\nSI-Figure 5. Bisphosphoryl α,α-GM-LAM 1 and monophosphoryl α,α-GM-LAM 3 induce the expression of maturation markers in human DCs. […] The cells were then harvested and the surface expression level of the indicated markers was measured by flow cytometry. […]"}, "[2]": {"tested_on": "THP-1 cells", "assay": "IRF-3 and IκBα phosphorylation by western blotting in THP-1 cells", "type": "cell-based, human", "protocol": "Supplementary SI-Figure 3\nDose-dependent responses (THP-1 cells: α,α-GM-LAM 1-3 and Re-LPS) at the concentration range 0.4 – 100 ng/ml which are presented in the Figure 5, were extended to the higher concentration range (up to 300 ng/ml).\nSI-Figure 3. Dose-dependent expression of cytokines induced by α,α-GM-LAM 1-3 in macrophage cell line THP-1 compared to E. coli Re-LPS at the concentration range 0.4 – 300 ng/ml. (A) Production of TNF-α; (B) Induction of […]\nSupplementary SI-Figure 4\nLipid A mimetic 1 was examined for the activation of NF-κB (Nuclear factor kappaB) and IRF3\n(Interferon regulatory factor 3). IRF3 activation […]\nnoticeable after 1h stimulation, though was\nLPS. At 1h stimulation the α,α-GM-LAM 1 was […]\nwhereas at 3h simulation compound 1 (at a […]\nstronger phosphorylation of IκBa (P-IκBa levels) as well as the higher levels of IκBa (reflecting the NF-κB dependent re-synthesis of IκB following its\nThus, IRF3 activation and NF-κB activation […]\ndegradation and its NF-κB dependent resynthesis) […]\ncompared to LPS after 3h stimulation.\nSI-Figure 4. NF-κB and IRF-3 activation by LPS and α,α-GM-LAM 1 in macrophage-like cell line THP-1. THP-1 cells were treated for 1 h (upper panel) or for 3 h (lower panel) with 1 or with E. coli O111:B4 LPS at the concentrations 10, 100 and 1000 ng/ml. Non treated cells (NT) or cells treated with DMSO were used as controls.\nCell extracts were separated by SDS polyacrylamide gel electrophoresis. Phosphorylated or total IRF-3 and IκBα was detected by western blotting as indicated. Actin detection was used as a control for equal loading in each line. […]\nSupplementary SI-Figure 6\nThe relative contribution of hydrophobic (acyl chains of Lipid A) and electrostatic (phosphate groups of Lipid A) interactions at the dimerization interface of two TLR4·MD-2·LPS complexes as well as the impact of the molecular shape of MD-2–bound Lipid A on the initiation of TLR4-mediated immune response remains largely unknown. […]"}}, "note": "“Also recorded” adds a separate entry of the source.", "data": [{"molecule": "CCCCCCCCCCCCCC(=O)O[C@H](CCCCCCCCCCC)CC(=O)O[C@@H]1[C@@H](NC(=O)C[C@@H](CCCCCCCCCCC)OC(=O)CCCCCCCCCCC)[C@@H](O[C@H]2O[C@H](COP(=O)(O)O)[C@@H](OC(=O)C[C@@H](CCCCCCCCCCC)OC(=O)CCCCCCCCCCC)[C@H](O)[C@@H]2OC)O[C@H](CO)[C@H]1OP(=O)(O)O", "note": "[Compound 1, 4-O-[(R)-3-(Dodecanoyloxy)tetradecanoyl]-2-O-methyl-6-O-phosphoryl-α-D-mannopyranosyl-(1↔1)-2-deoxy-2-[(R)-3-(dodecanoyloxy)tetradecanoylamino]-4-O-phosphoryl-3-O-[(R)-3-(tetradecanoyloxy)tetradecanoyl]-α-D-glucopyranoside]", "values": [{"measurement": "DCs maturation and up-regulation of CD86, MHC class I and MHC class II compared to LPS", "setting": "[1]", "value": "as potent as by LPS; also recorded: as potent as that with LPS"}, {"measurement": "activation of NF-κB compared with LPS", "setting": "[2]; THP-1, 1 h stimulation", "value": "comparable"}, {"measurement": "IRF3 activation (IRF-3 phosphorylation)", "setting": "[2]; THP-1, 3 h stimulation", "value": "detectable after 3h stimulation"}, {"measurement": "activation of NF-κB compared with LPS (P-IκBα and IκBα levels)", "setting": "[2]; THP-1, 3 h stimulation, concentration higher than 50 nM", "value": "more potent"}]}, {"molecule": "CCCCCCCCCCCCCC(=O)O[C@H](CCCCCCCCCCC)CC(=O)O[C@@H]1[C@@H](NC(=O)C[C@@H](CCCCCCCCCCC)OC(=O)CCCCCCCCCCC)[C@@H](O[C@H]2O[C@H](CO)[C@@H](OC(=O)C[C@@H](CCCCCCCCCCC)OC(=O)CCCCCCCCCCC)[C@H](O)[C@@H]2OC)O[C@H](CO)[C@H]1OP(=O)(O)O", "note": "[Compound 3, 4-O-[(R)-3-(Dodecanoyloxy)tetradecanoyl]-2-O-methyl-α-D-mannopyranosyl-(1↔1)-2-deoxy-2-[(R)-3-(dodecanoyloxy)tetradecanoylamino]-4-O-phosphoryl-3-O-[(R)-3-(tetradecanoyloxy)tetradecanoyl]-α-D-glucopyranoside]", "values": [{"measurement": "DCs maturation and up-regulation of CD86, MHC class I and MHC class II compared to LPS", "setting": "[1]", "value": "less pronounced activation marker profile"}]}]}
